From patent publication US12649734B2, “Bioavailable protein disulfide isomerase inhibitors” (THE CLEVELAND CLINIC FOUNDATION, priority 2020, dated 2026)

Tests used:
MM1.S cells [1] = experiment: Cell viability assay (CellTiter-Glo), MM1.S; assay type: cell-based, human; conditions: Homo sapiens; MM1.S.luc; read-out: IC50 concentration
Protocol: Cell vi-ability and LD50 for inhibitors were measured in 96 well culture plates (2×10^4 cells/well) after 72 h of treatment using CellTiter-Glo® Luminescent Cell Viability Assay (Promega, Madison, WI, USA). (A) Cell survival assay with MM1.S.luc and BTZ-resistant MM1.S.luc cells. […] (C) Comparison of PDIA1 protein levels in MM1.S.luc and MM1.S.luc BTZ-resistant cells. Band intensity was calculated with Image Lab Version 5.2.1. (D) Cell survival assay with 5TGM1.luc and (E) BTZ-resistant 5TGM1.luc cells. (F) MM1.S cell line was exposed to CCF642-34, and BTZ for 72 h for synergistic drug combination test according to Chou and Talalay method. If the […] remained less than 1, the two drugs were determined as synergistic. […] The number of colony-forming units were plotted for each treatment.
(§1) Cell viability assay: Cell viability was measured in 96 well culture plates (2×10^4 cells/well) using CellTiter-Glo® Luminescent Cell Viability Assay (Promega, Madison, WI, USA) according to the manufacturer's protocol.

[2] = system: BTZ-resistant MM1.S cells; experiment: Cell viability assay, BTZ-resistant MM1.S; assay type: cell-based, human; conditions: Homo sapiens, MM1.S; MM1S.luc BTZ; read-out: IC50 concentration
Protocol: Cells and reagents: MM1.S-luc-BTZ (BTZ®)-resistant cell line was made in our laboratory. Starting with 1 nM concentration, MM1.S-luc cells were treated with BTZ and exposed continuously for 5 days and removed for 2 days before re-exposure to the drug until the growth of the cells mimicked the parental cell line. Incremental increase of the drug was applied until the concentration of 8 nM was reached. […] BTZ was procured from Millennium Pharmaceuticals Inc. All cell lines that are used in this study and their detailed information are shown in table 1 below.
as §1

[3] = Solubility in aqueous buffer (turbidity assay); assay type: physicochemical
Source text: To improve its solubility, potency, and selectivity, the inventors used the CCF642 binding space in the catalytic site for in silico modeling and mapped the binding site to the helix-turn-helix motif composed of the WCGHCK binding site in the aa′ and bb′ domains of the PDIA1 active site (FIG. 4A,B). […] The inventors chose to accomplish this by attaching a 3-carbon flexible linker with a terminal primary amino group to the corresponding phenol followed by coupling to desired L-amino acids (FIGS. 1, 2, 4A). The N-BOC penultimate intermediates were purified using flash silica gel chromatography and then deprotected using 4N HCl in dioxane to generate the corresponding hydrochloride (HCL) salts. The compounds for testing were fully characterized by ^1H, ^13C NMR and high-resolution mass spectroscopy.

[4] = system: RPMI-8226 cells vs CD34+ HSPCs derived from healthy bone marrow; experiment: In vitro colony-forming assay, myeloma cells versus normal bone marrow CD34+ cells; assay type: cell-based, human; conditions: colonies scored on day 14
Protocol: In vitro colony-forming assays: Mononuclear cells derived from bone marrow or purified CD34+ cells from a healthy donor, cord blood, or MM cell RPMI-8226 were grown in semi-solid methylcellulose media (MethoCult™, H4435; STEMCELL Technologies) in the presence of indicated compounds and concentrations. A total of 10,000/mL normal bone marrow CD34+ cells and 1000/mL RPMI-8226 cells were plat-ed, and colonies were scored on day 14.

PDIA1 = PDIA1 (Homo sapiens, UniProt P07237); conditions: cited from earlier work
PDI = PDI (Homo sapiens, UniProt P07237); conditions: reported previously; cited from earlier work
MM1.S cells [5] = experiment: RNA-seq gene expression profiling; assay type: cell-based, human; conditions: 3 μM, 6 h
Protocol: FIGS. 7A-7H provide graphs showing CCF642-34 is selective for PDIA1 inhibition-induced ER stress response pathway. MM1.S cells were treated with 3 μM of either CCF642 or CCF642-34 for 6 h, and gene expression analysis was performed by RNA sequencing. (A,B) Volcano plots showing CCF642-34 and CCF642 compared to DMSO control. The criteria for differential expression were at least a 2-fold change with p value less than 0.05. The analysis was performed in Originlab, Version 2019b (OriginLab Corporation, Northampton, MA, USA). […] The diagram was generated using a web-based bioinformatics server. (D,E) Hierarchical clusterings with heat map of MM1.S cells treated with vehicle CCF642-34 or CCF642 are shown for response to endoplasmic reticulum stress and unfolded protein response gene sets. (F-H) Heat maps of PERK and ATF6 target genes, Nrf2, and ER-associated degradation (ERAD) pathways are compared between control and inhibitor-treated MM1.S cells. Data analysis was performed using a web-based server and the Broad Institute Morpheus software.
RNA-seq and analysis: MM1.S cells were treated with 3 μM of either CCF642 or CCF642-34 for 6 h, and RNA was purified by using the NucleoSpin RNA kit (Takara Bio USA, Inc.; cat. #740955) according to the manufacturer's instruction. The RNA sequencings were completed as reported previously. Guan et al., Commun. Biol., 3, 1-13 (2020) The RNA-seq data were sub-mitted to the Gene Expression Omnibus (GEO) repository at the National Center for Biotechnology Information (NCBI) archives, with assigned GEO accession number GSE167097.

MM1.S cells [6] = experiment: ER stress response and apoptosis markers by immunoblotting; assay type: cell-based, human; conditions: 3 μM, 4 h
Protocol: FIGS. 6A-6C provide graphs and images showing PDIA1 inhibition by CCF642 analogues induce acute endoplasmic reticulum (ER) stress response and lead to apoptosis. Multiple myeloma cells (MM1.S) were treated with 3 μM of CCF642, -34, -37, -39, -34-A, and Tunicamycin (as a control). The status of ER sensors (XBP-1S, IRE1α oligomerization, and induction of C/EBP homology protein (CHOP)) along with apoptosis markers (cleaved caspase 3 and PARP1) were monitored. (A) MM1.S cells were treated for 4 h with CCF642 and its indicated analogues. (B) MM1.S cells were treated with CCF642-34 in a time course. (C) MM1.S, MM1.S.luc, and BTZ-resistant MM1.S.luc cells were stained with the H2DCFDA ROS detection and then treated with 2.5 μM CCF642-34 up to 4 h.
Immunoblotting: Immunoblotting was performed as described previously (Dallas et al., Blood, 93, 1697-1706 (1999)) using primary antibodies against PDIA1 (Cat #3501), XBP1-S (Cat #12782); IRE1α (Cat #3294), C/EBP homologous protein (CHOP) (Cat #5554), Caspase-3 (Cat #9665), PARP1 (Cat #9542), and GAPDH (Cat #3683) purchased from Cell Signaling Technology, Inc. (Danvers, MA, USA) and used at 1:1000 dilution, unless mentioned otherwise.

Chain of PDI (P07237 18-508): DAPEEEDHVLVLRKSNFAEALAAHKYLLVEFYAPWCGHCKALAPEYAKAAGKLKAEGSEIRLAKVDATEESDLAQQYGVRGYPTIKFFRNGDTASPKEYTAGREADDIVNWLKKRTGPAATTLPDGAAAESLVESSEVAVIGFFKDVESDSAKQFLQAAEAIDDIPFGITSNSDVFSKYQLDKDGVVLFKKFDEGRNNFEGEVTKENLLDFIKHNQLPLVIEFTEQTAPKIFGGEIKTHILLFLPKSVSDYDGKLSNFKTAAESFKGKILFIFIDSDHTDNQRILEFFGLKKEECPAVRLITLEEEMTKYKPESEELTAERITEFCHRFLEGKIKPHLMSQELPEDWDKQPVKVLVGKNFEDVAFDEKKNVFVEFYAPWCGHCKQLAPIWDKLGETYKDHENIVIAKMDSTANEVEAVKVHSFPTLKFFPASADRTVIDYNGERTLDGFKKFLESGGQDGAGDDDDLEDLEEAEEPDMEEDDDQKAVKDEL
Chain of PDIA1 (P07237 18-508): as above

Structure (SMILES): CC(C)C[C@H](NC(=O)[C@H](Cc1ccccc1)NC(=O)c1cnccn1)B(O)O [Bortezomib, reference compound]
- IC50 (MM1.S cells [1]): 2 nM
- IC50 [2]: 8 nM

Structure (SMILES): COc1ccc(N2C(=O)/C(=C\c3ccc([N+](=O)[O-])s3)SC2=S)cc1 [CCF642, reference compound]
- solubility [3]: insolubility
- potency in restricting colony formation of RPMI-8226 compared to CD34+ HSPCs [4]: ~20 fold
- binding selectivity of CCF642, as reported previously (PDIA1): off-target bindings in addition to its binding to PDIA1
- IC50 (PDI): sub-micromolar
- number of downregulated genes (MM1.S cells [5]): 257 genes
- number of upregulated genes (MM1.S cells [5]): 311 genes
- number of genes with changed expression compared to vehicle control (MM1.S cells [5]; 2-fold change, p less than 0.05): 568 genes

Structure (SMILES): O=C(CCC1CNc2ccccc21)NCCCOc1ccc(N2C(=O)/C(=C/c3ccc([N+](=O)[O-])s3)SC2=S)cc1 (stereo not shown) [CCF642-34A]
- ER stress response (induction of XBP-1S and CHOP) (MM1.S cells [6]): failed to induce acute ER stress response
